Results published in patent US7659298B2, “Pyrazole derivatives and use thereof as orexin receptor antagonists” (sanofi-aventis, priority 2003, dated 2010).
Where no end group is shown, it is not given here.

Experiments:
[1] = molecular target: T1, human recombinant orexin-1 (hr-OX-1) receptor (Homo sapiens, UniProt O43613); experiment: hr-125I-orexin-A radioligand competition binding, orexin-1 receptor; conditions: read-out: Orex-1 IC50
T1 construct: expressed in transfected cells; host or cells: CHO cells (CHO-hr-OX-1), purified plasma membrane fraction
T1 sequence (O43613 1-425): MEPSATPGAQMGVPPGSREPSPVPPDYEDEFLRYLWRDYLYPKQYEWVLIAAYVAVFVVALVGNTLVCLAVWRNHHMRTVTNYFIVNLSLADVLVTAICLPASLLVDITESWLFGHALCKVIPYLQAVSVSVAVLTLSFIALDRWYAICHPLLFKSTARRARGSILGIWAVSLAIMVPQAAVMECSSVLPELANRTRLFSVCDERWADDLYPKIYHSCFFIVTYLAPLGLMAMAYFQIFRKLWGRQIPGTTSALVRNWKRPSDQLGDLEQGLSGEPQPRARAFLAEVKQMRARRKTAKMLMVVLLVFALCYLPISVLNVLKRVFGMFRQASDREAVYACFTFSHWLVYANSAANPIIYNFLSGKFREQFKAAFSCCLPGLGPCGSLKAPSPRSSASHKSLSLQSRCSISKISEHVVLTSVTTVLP
Protocol: (§1) In vitro radioligand binding assays were used for determination of the affinities of the compounds for both the orexin-1 and orexin-2 receptors.
(§2) In the frame of hr-^125I-orexin-A radioligand competition (displacement) experiments a fixed concentration of hr-^125I-orexin-A is incubated with increasing concentrations of unlabeled test compound in the presence of highly purified plasmamembranes bearing either the human recombinant orexin-1 (hr-OX-1) or the human recombinant orexin-2 (hr-OX-2) receptors. Specific binding of hr-^125I-orexin-A to plasmamembranes is measured at each concentrations of the unlabeled compound and thus a competition curve is generated. The concentration of unlabeled compound displacing 50% of specific binding (IC50) is calculated. In case of competitive interaction the binding affinity constant of the unlabeled compound (KI) is calculated according to the Cheng-Prusoff equation ([…]. Affinity of unlabeled compound for the receptor is equal to 1/KI.
(§3) Culturing the Chinese hamster ovarian cells expressing human recombinant orexin-1 or orexin-2 receptor proteins (CHO-hr-OX-1 or CHO-hr-OX-2 cells) was carried out in cell culture medium (MEM medium, supplemented with 40 mg/l prolin, 20 mg/l gentamycin, 300 mg/l geneticin, 10% dialysed fetal calf serum).
(§4) Adherent cells were plated into Greiner flasks (175 cm^2). 4-6 days later culture medium was removed and cells were scarped in calcium- and magnesium-free phosphate buffered saline (PBS, 20 ml/flask). The cell suspension was centrifuged at 1,000 g for 5 minutes (4° C.). The resulting pellet was resuspended and homogenized with a teflon pestle (4° C.), then layered onto a discontinous sucrose gradient and centrifuged at 105,000 g. […]
(§5) Serial dilution series were prepared from stock solutions (100% DMSO) with binding assay buffer in such a way that each samples contained a final concentration of 1% of DMSO in the receptor binding reaction mixture. […] The radioactivity remained on the filter was counted in a gamma counter (Wallac Automatic Gamma Counter 1470 Wizard).

[2] = molecular target: T2, human recombinant orexin-2 (hr-OX-2) receptor (Homo sapiens, UniProt O43614); experiment: hr-125I-orexin-A radioligand competition binding, orexin-2 receptor; conditions: read-out: Orex-2 IC50
T2 construct: expressed in transfected cells; host or cells: CHO cells (CHO-hr-OX-2), purified plasma membrane fraction
T2 sequence (O43614 1-444): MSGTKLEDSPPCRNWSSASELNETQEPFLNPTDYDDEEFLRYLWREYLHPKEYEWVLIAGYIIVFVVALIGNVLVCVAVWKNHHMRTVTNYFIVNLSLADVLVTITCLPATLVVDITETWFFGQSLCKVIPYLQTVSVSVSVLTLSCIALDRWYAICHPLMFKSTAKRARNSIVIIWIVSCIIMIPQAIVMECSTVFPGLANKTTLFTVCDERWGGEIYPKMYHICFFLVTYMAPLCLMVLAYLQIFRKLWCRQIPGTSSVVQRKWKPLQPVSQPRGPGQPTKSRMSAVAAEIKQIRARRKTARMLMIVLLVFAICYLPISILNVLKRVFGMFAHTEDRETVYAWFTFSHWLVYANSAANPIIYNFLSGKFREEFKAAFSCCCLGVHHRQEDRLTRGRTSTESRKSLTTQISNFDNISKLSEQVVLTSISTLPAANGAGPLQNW
Protocol: as §1, §2, §3, §4, §5

orexin-1 receptors = conditions: cited from earlier work

`Cn1nc(-c2cccnc2)c(CCc2ccccc2C(=O)Nc2cnc3ccccc3c2)c1Cl` [2-[2-(5-Chloro-1-methyl-3-pyridin-3-yl-1H-pyrazol-4-yl)ethyl]-N-quinolin-3-ylbenzamide] gave an IC50 [1] of 57 nM and an IC50 [2] of 680 nM.
Compound `Cn1nc(-c2ccccc2)c(COc2ccccc2C(=O)Nc2cnc3ccccc3c2)c1Cl` [Example 65, 2-(3-Phenyl-5-chloro-1-methyl-1H-pyrazol-4-ylmethoxy)-N-quinolin-3-ylbenzamide] has a melting point of 170 °C.
In the case of “orexin A: "Orexin A consists of 33 aminoacid residues with two intramolecular disulphide bridges" (QPLPDCCRQKTCSCRLYELLHGAGNHAAGILTL; disulfide (positions not given here); ends not checked; UniProt O43612 34-66, looked up)”, the “fold more effective on the orexin-1 receptors compared to orexin B” value (orexin-1 receptors) is given as 10-50 fold.
Work on `Cn1nc(-c2ccncc2)c(COc2ccccc2C(=O)Nc2cnc3ccccc3c2)c1Cl` [2-(5-Chloro-1-methyl-3-pyridin-4-yl-1H-pyrazol-4-ylmethoxy)-N-quinolin-3-ylbenzamide] yielded an IC50 [1] of 51 nM and an IC50 [2] of 1100 nM.
`Cn1nc(-c2ccccc2)c(CSc2ccccc2C(=O)Nc2ccc3ccccc3c2)c1Cl` gave an IC50 [1] of 33 nM and an IC50 [2] of 156 nM.
